According to US20240270821A1, “GIP/GLP1/GCG TRI-RECEPTOR AGONISTS AND USES THEREOF” (priority 2023, published 2024):
Where two headings read alike, the source gives them in different places. Starred links: 1 amine or outer side, 2 acyl side, 3 side chain; linkers in the order of their positions; H or OH if unused. Non-standard residues stand in square brackets, D forms with d. Residues, ends and D or L forms follow the SMILES beside them. Groups on a side chain read outwards from the residue. No end group written: not given here. *: point of attachment. C20 diacid = O=C(O)CCCCCCCCCCCCCCCCCCC(=O)*; C18 diacid = O=C(O)CCCCCCCCCCCCCCCCC(=O)*; αMePhe(2-F) = C[C@](N)(Cc1ccccc1F)C(=O)O; γGlu = O=C(O)[C@H](CCC(=O)[*:2])N[*:1]; αMe4Pal = C[C@](N)(Cc1ccncc1)C(=O)O; αMeY = C[C@](N)(Cc1ccc(O)cc1)C(=O)O; 4Pal = N[C@@H](Cc1ccncc1)C(=O)O; αMeL = CC(C)C[C@](C)(N)C(=O)O; αMeS = C[C@](N)(CO)C(=O)O; Orn = NCCC[C@H](N)C(=O)O; AEEA = NCCOCCOCC(=O)O; Aib = CC(C)(N)C(=O)O

Key:
Format in all cases: cell-based
hGIPR [1] = target: T1, hGIPR (Homo sapiens, UniProt P48546); test: Functional cAMP activity in the presence of 1% HSA; settings: read-out: cAMP Rel EC50, hGIPR
T1 sequence (P48546 22-466): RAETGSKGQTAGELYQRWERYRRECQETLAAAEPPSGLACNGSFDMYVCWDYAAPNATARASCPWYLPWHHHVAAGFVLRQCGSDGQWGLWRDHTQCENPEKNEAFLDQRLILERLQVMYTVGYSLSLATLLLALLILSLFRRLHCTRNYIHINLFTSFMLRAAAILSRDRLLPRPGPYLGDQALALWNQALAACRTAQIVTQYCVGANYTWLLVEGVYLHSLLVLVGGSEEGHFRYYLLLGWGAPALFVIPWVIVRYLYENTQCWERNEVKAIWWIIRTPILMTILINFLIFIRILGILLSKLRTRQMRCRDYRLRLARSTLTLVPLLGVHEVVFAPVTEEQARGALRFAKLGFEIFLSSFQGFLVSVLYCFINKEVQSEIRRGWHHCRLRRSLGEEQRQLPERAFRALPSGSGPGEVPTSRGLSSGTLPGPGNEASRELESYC

hGLP-1R [2] = target: T2, hGLP-1R (Homo sapiens, UniProt P43220); test: Functional cAMP activity in the presence of 1% HSA; settings: read-out: cAMP Rel EC50, hGLP-1R
T2 sequence (P43220 24-463): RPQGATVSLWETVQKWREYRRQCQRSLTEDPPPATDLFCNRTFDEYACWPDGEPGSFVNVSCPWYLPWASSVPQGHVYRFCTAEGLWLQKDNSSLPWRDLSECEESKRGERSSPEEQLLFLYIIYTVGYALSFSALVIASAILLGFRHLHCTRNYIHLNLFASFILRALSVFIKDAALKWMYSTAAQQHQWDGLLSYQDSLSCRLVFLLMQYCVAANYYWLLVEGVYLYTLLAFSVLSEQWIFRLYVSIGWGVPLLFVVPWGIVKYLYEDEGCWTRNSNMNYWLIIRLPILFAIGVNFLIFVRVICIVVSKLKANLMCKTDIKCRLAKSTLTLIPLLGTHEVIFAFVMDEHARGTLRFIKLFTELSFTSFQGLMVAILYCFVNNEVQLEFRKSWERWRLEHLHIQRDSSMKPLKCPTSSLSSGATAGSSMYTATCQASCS

human GcgR = human GcgR (Homo sapiens, UniProt P47871); test: Functional cAMP activity in the presence of 1% HSA; settings: read-out: cAMP Rel EC50, hGcgR
Sequence of human GcgR (P47871 26-477): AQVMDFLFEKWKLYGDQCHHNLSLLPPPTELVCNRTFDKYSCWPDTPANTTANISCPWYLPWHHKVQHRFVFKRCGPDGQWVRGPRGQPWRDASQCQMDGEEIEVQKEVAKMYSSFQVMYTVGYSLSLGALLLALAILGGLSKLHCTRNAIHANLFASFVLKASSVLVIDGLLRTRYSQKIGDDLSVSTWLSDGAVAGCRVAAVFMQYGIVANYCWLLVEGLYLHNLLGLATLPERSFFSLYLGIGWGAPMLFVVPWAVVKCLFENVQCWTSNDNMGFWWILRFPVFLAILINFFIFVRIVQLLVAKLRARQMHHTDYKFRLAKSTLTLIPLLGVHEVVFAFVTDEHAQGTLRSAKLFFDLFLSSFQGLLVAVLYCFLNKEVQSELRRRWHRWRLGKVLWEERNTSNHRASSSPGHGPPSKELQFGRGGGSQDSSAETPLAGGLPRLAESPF

hGIPR [3] = target: T1, hGIPR; test: Functional cAMP activation in the presence of 0.1% casein (no HSA); settings: read-out: Relative cAMP EC50, hGIPR;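 as to Relative cAMP EC50, hGIPR: intracellular cAMP rise after 30 min at 37 °C read by HTRF against a standard curve, scaled between buffer alone (0%) and top control ligand concentration (100%), four-parameter fit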;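 as to Relative cAMP EC50, hGLP-1R: intracellular cAMP rise after 30 min at 37 °C read by HTRF, normalized between buffer only (0%) and maximal control ligand (100%), four-parameter variable-slope fit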;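 as to Relative cAMP EC50, hGcgR: intracellular cAMP rise after 30 min at 37 °C, read by HTRF against a cAMP standard curve, scaled from buffer only (0%) to maximal control ligand response (100%)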
hGLP-1R [4] = target: T2, hGLP-1R; test: as above; settings: read-out: Relative cAMP EC50, hGLP-1R
hGcgR = hGcgR (Homo sapiens, UniProt P47871); test: as above; settings: read-out: Relative cAMP EC50, hGcgR;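 also: intracellular cAMP rise after 30 min at 37 °C, read by HTRF against a cAMP standard curve, scaled from buffer only (0%) to maximal control ligand response (100%)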
Sequence of hGcgR (P47871 26-477): as above

[5] = in the presence of 0.1% casein (no HSA), geometric mean
[6] = HEK-293 clonal cell line, 1% HSA, geometric mean of relative EC50
[7] = in the presence of 0.1% casein (no HSA), geometric mean of relative EC50
[8] = 0.1% casein, no HSA, geometric mean

Compound	EC50 (hGIPR [1]) [nM]	EC50 (hGLP-1R [2]) [nM]	EC50 (human GcgR) [nM]	EC50 (hGIPR [3]; [5]) [nM]	EC50 (hGLP-1R [4]; [5]) [nM]	EC50 (hGcgR; [5]) [nM]	other results
CC[C@H](C)[C@H](NC(=O)[C@H](Cc1ccccc1)NC(=O)[C@H](CCCN)NC(=O)C(C)(C)NC(=O)[C@H](CCC(N)=O)NC(=O)[C@H](C)NC(=O)[C@H](CCCCNC(=O)COCCOCCNC(=O)CC[C@H](NC(=O)CC[C@H](NC(=O)CCCCCCCCCCCCCCCCC(=O)O)C(=O)O)C(=O)O)NC(=O)[C@H](CCCN)NC(=O)[C@H](CC(=O)O)NC(=O)[C@H](CC(C)C)NC(=O)[C@](C)(CC(C)C)NC(=O)[C@@H](NC(=O)[C@](C)(CO)NC(=O)[C@H](Cc1ccncc1)NC(=O)[C@H](CC(=O)O)NC(=O)[C@H](CO)NC(=O)[C@@H](NC(=O)[C@](C)(Cc1ccccc1F)NC(=O)[C@@H](NC(=O)CNC(=O)[C@H](CCC(N)=O)NC(=O)C(C)(C)NC(=O)[C@@H](N)Cc1ccc(O)cc1)[C@@H](C)O)[C@@H](C)O)[C@@H](C)CC)C(=O)N[C@H](CCC(=O)O)C(=O)N[C@@](C)(Cc1ccc(O)cc1)C(=O)N[C@@H](CC(C)C)C(=O)N[C@@H](CC(C)C)C(=O)N[C@@H](CCC(=O)O)C(=O)NCC(=O)NCC(=O)N1CCC[C@H]1C(=O)N[C@@H](CO)C(=O)N[C@@H](CO)C(=O)NCC(=O)N[C@@H](CCC(=O)O)C(=O)N1CCC[C@H]1C(=O)N1CCC[C@H]1C(=O)N1CCC[C@H]1C(=O)N[C@@H](CO)C(N)=O [Example 376] (H-Y[Aib]QGT[αMePhe(2-F)]TSD[4Pal][αMeS]I[αMeL]LD[Orn]K([AEEA-γGlu-γGlu-C18 diacid])AQ[Aib][Orn]FI[dE][αMeY]LLEGGPSSGEPPPS-NH2)	5.42	26	115	0.0354	0.445	1.71	
H-Y[Aib]QGTFTSD[4Pal]SQ[αMeL]LD[Orn]K([γGlu-γGlu-C18 diacid])AQ[αMe4Pal]QFIEYLLAGGPSSGAPPPSGSEE-NH2 [Example 1006]	11.8	574	315	0.109	5.12	4.28	
CC[C@H](C)[C@H](NC(=O)[C@H](Cc1ccccc1)NC(=O)[C@H](C)NC(=O)C(C)(C)NC(=O)[C@H](CCC(N)=O)NC(=O)[C@H](C)NC(=O)[C@H](CCCCNC(=O)COCCOCCNC(=O)CC[C@H](NC(=O)CCCCCCCCCCCCCCCCC(=O)O)C(=O)O)NC(=O)[C@H](CCCCN)NC(=O)[C@H](CC(=O)O)NC(=O)[C@H](CC(C)C)NC(=O)[C@H](CC(C)C)NC(=O)[C@@H](NC(=O)[C@](C)(CO)NC(=O)[C@H](Cc1ccncc1)NC(=O)[C@H](CC(=O)O)NC(=O)[C@H](CO)NC(=O)[C@@H](NC(=O)[C@](C)(Cc1ccccc1F)NC(=O)[C@@H](NC(=O)CNC(=O)[C@H](CCC(N)=O)NC(=O)C(C)(C)NC(=O)[C@@H](N)Cc1ccc(O)cc1)[C@@H](C)O)[C@@H](C)O)[C@@H](C)CC)C(=O)N[C@@H](CCC(=O)O)C(=O)N[C@@H](Cc1ccc(O)cc1)C(=O)N[C@@H](CC(C)C)C(=O)N[C@@H](CCC(=O)O)C(=O)N[C@@H](CCC(=O)O)C(=O)NCC(=O)NCC(=O)N1CCC[C@H]1C(=O)N[C@@H](CO)C(=O)N[C@@H](CO)C(=O)NCC(=O)N[C@@H](C)C(=O)N1CCC[C@H]1C(=O)N1CCC[C@H]1C(=O)N1CCC[C@H]1C(=O)N[C@@H](CCC(=O)O)C(N)=O [Example 464] (H-Y[Aib]QGT[αMePhe(2-F)]TSD[4Pal][αMeS]ILLDKK([AEEA-γGlu-C18 diacid])AQ[Aib]AFIEYLEEGGPSSGAPPPE-NH2)	19.9	45.5	194				EC50 (hGIPR [3]): 0.072 nM; EC50 (hGLP-1R [4]): 0.466 nM; EC50 (hGcgR): 1.25 nM
H-Y[Aib]QGTFTSD[4Pal]SK[αMeL]LDKK([AEEA-γGlu-C18 diacid])AQ[Aib]AFIEYLIA[Aib]GESSGEPPPSGS-NH2 [Example 287]	9.94	562	291	0.0633	4.25	2.53	
H-Y[Aib]QGTFTSD[4Pal]S[Orn][αMeL]LD[Orn]K([γGlu-γGlu-C18 diacid])AQ[Aib]AFIEYLLAGGPSSGAPPPSGSEE-NH2 [Example 1069]	39.5	1290	2160	0.417	8.87	21.2	
H-Y[Aib]QGT[αMePhe(2-F)]TSD[4Pal]SI[αMeL]LDKK([γGlu-γGlu-C18 diacid])AQ[Aib][Orn]FIEYLSEGGPSSGEPPPEGSEE-NH2 [Example 651]							EC50 (hGIPR [1]; [6]): 6.3 nM; EC50 (hGLP-1R [2]; [6]): 53.9 nM; EC50 (human GcgR; [6]): 639 nM; EC50 (hGIPR [3]; [7]): 0.112 nM; EC50 (hGLP-1R [4]; [7]): 1.02 nM; EC50 (hGcgR; [7]): 10.7 nM
H-Y[Aib]QGT[αMePhe(2-F)]TSD[4Pal][αMeS]I[αMeL]LD[Orn]K([AEEA-γGlu-C18 diacid])AQ[αMe4Pal]EFI[dE][αMeY]LVEGGPSSGAPPPESE-NH2 [Example 1156]	1.33	47.1	337	0.0127	0.444	2.94	
H-Y[Aib]QGTFTSD[4Pal]S[Orn][αMeL]LD[Orn]K([γGlu-γGlu-γGlu-C18 diacid])AQ[αMe4Pal]AFIEYLIE[Aib]GPSSGAPPPSGSE-NH2 [Example 943]	23.1	382	960	0.233	3.58	6.58	
H-Y[Aib]QGT[αMePhe(2-F)]TSD[4Pal][αMeS]I[αMeL]LD[Orn]K([γGlu-γGlu-C18 diacid])AQ[Aib][Orn]FI[dE]YLIEGGPSSGEPPPSGTEEE-NH2 [Example 540]	1.93	38.2	405				EC50 (hGIPR [3]): 0.0296 nM; EC50 (hGLP-1R [4]): 0.686 nM; EC50 (hGcgR): 5.62 nM
Y[Aib]QGTFTSDFSK[αMeL]LDKK([AEEA-γGlu-C20 diacid])AQ[Aib]AFIQYLLAGGPSSGEPPPSEG-NH2 [Example 27]	72.3	464	1180	0.41	2.33	8.91	
CC[C@H](C)[C@H](NC(=O)[C@H](Cc1ccccc1)NC(=O)[C@H](C)NC(=O)C(C)(C)NC(=O)[C@H](CCC(N)=O)NC(=O)[C@H](C)NC(=O)[C@H](CCCCNC(=O)CC[C@H](NC(=O)CC[C@H](NC(=O)CCCCCCCCCCCCCCCCC(=O)O)C(=O)O)C(=O)O)NC(=O)[C@H](CCCCN)NC(=O)[C@H](CC(=O)O)NC(=O)[C@H](CC(C)C)NC(=O)[C@](C)(CC(C)C)NC(=O)[C@H](CCCN)NC(=O)[C@H](CO)NC(=O)[C@H](Cc1ccccc1)NC(=O)[C@H](CC(=O)O)NC(=O)[C@H](CO)NC(=O)[C@@H](NC(=O)[C@H](Cc1ccccc1)NC(=O)[C@@H](NC(=O)CNC(=O)[C@H](CCC(N)=O)NC(=O)C(C)(C)NC(=O)[C@@H](N)Cc1ccc(O)cc1)[C@@H](C)O)[C@@H](C)O)C(=O)N[C@@H](CCC(=O)O)C(=O)N[C@@H](Cc1ccc(O)cc1)C(=O)N[C@@H](CC(C)C)C(=O)N[C@@H](CC(C)C)C(=O)N[C@@H](CCC(=O)O)C(=O)NCC(=O)NCC(=O)N1CCC[C@H]1C(=O)N[C@@H](CO)C(=O)N[C@@H](CO)C(=O)NCC(=O)N[C@@H](C)C(=O)N1CCC[C@H]1C(=O)N1CCC[C@H]1C(=O)N1CCC[C@H]1C(=O)N[C@@H](CO)C(=O)NCC(=O)N[C@@H](CO)C(N)=O [Example 199]	41.6	1060	1000	0.232	4.91	5.8	
H-Y[Aib]QGT[αMePhe(2-F)]TSD[4Pal][αMeS]I[αMeL]LD[Orn]K([γGlu-γGlu-C18 diacid])AQ[αMe4Pal]EFI[dE][αMeY]LIEGGPSSGAPPPSGGGEE-NH2 [Example 1218]	0.626	48.7	185				EC50 (hGIPR [3]; [8]): 0.00839 nM; EC50 (hGLP-1R [4]; [8]): 0.58 nM; EC50 (hGcgR; [8]): 1.88 nM
H-Y[Aib]QGT[αMePhe(2-F)]TSD[4Pal][αMeS]I[αMeL]LD[Orn]K([AEEA-γGlu-C18 diacid])AQ[αMe4Pal]EFI[dE][αMeY]LIEGGPSSGAPPPEGGGEE-NH2 [Example 1216]	0.914	66.9	225				EC50 (hGIPR [3]; [8]): 0.00921 nM; EC50 (hGLP-1R [4]; [8]): 0.65 nM; EC50 (hGcgR; [8]): 1.83 nM
